Values quoted from earlier work, collected in patent publication US20200289552A1, “SOLID COMPOSITION COMPRISING IODINE AGENT AND SODIUM CHLORIDE HAVING IMPROVED WATER SOLUBILITY, AND ANTIVIRAL AND ANTIMICROBIAL COMPOSITION FOR EYE, ORAL CAVITY, NASAL CAVITY OR INHALATION CONTAINING AQUEOUS SOLUTION THEREOF” (FLUCHEM LTD, priority 2017, published 2020).

Key:
[1] = stored sealed, room temperature and 65° C., for 3 years
[2] = U.S. patent Ser. No. 04/950,653
[3] = system: highly pathogenic H5N1 and low pathogenic H5N3, H7N7, and H9N7

In the case of povidone iodine, the effective iodine loss [1] is listed as “about 0.5%”, the “time to dissolve in water” value [2] is listed as 45 min and the “time to inactivate viruses below a detection limit” value [3] is listed as “less than 10 seconds”.
